Test results from patent US10064928B2, “Peptides and combination of peptides for use in immunotherapy against CLL and other cancers” (IMMATICS BIOTECHNOLOGIES GMBH, priority 2015, dated 2018).

Columns and labels:
CD8+ T cells = test: In vitro T-cell priming assay with aAPCs loaded with peptide/MHC and anti-CD28, multimer readout; format: cell-based, human; details: in vitro immunogenicity, HLA-A*02 restricted peptides; percentage of positive wells
Source text: In order to obtain information regarding the immunogenicity of the TUMAPs of the present invention, the inventors performed investigations using an in vitro T-cell priming assay based on repeated stimulations of CD8+ T cells with artificial antigen presenting cells (aAPCs) loaded with peptide/MHC complexes and anti-CD28 antibody.
In order to perform in vitro stimulations by artificial antigen presenting cells loaded with peptide-MHC complex (pMHC) and anti-CD28 antibody, the inventors first isolated CD8+ T cells from fresh HLA-A*02 leukapheresis products via positive selection using CD8 microbeads (Miltenyi Biotec, Bergisch-Gladbach, Germany) of healthy donors obtained from the University clinics Mannheim, Germany, after informed consent.
PBMCs and isolated CD8+ lymphocytes were incubated in T-cell medium (TCM) until use consisting of RPMI-Glutamax (Invitrogen, Karlsruhe, Germany) supplemented with 10% heat inactivated human AB serum (PAN-Biotech, Aidenbach, Germany), 100 U/ml Penicillin/100 μg/ml Streptomycin (Cambrex, Cologne, Germany), 1 mM sodium pyruvate (CC Pro, Oberdorla, Germany), 20 μg/ml Gentamycin (Cambrex). 2.5 ng/ml IL-7 (PromoCell, Heidelberg, Germany) and 10 U/ml IL-2 (Novartis Pharma, Nürnberg, Germany) were also added to the TCM at this step.
Generation of pMHC/anti-CD28 coated beads, T-cell stimulations and readout was performed in a highly defined in vitro system using four different pMHC molecules per stimulation condition and 8 different pMHC molecules per readout condition.
The purified co-stimulatory mouse IgG2a anti human CD28 Ab 9.3 (Jung et al., 1987) was chemically biotinylated using Sulfo-N-hydroxysuccinimidobiotin as recommended by the manufacturer (Perbio, Bonn, Germany). Beads used were 5.6 μm diameter streptavidin coated polystyrene particles (Bangs Laboratories, Illinois, USA).
800.000 beads/200 μl were coated in 96-well plates in the presence of 4×12.5 ng different biotin-pMHC, washed and 600 ng biotin anti-CD28 were added subsequently in a volume of 200 μl. Stimulations were initiated in 96-well plates by co-incubating […] CD8+ T cells with 2×10^5 washed coated beads in 200 μl TCM supplemented with 5 ng/ml IL-12 (PromoCell) for 3 days at 37° C. Half of the medium was then exchanged by fresh TCM supplemented with 80 U/ml IL-2 and incubating was continued for 4 days at 37° C. This stimulation cycle was performed for a total of three times. For the pMHC multimer readout using 8 different pMHC molecules per condition, a two-dimensional combinatorial coding approach was used as previously described (Andersen et al., 2012) with minor modifications encompassing coupling to 5 different fluorochromes. Finally, multimeric analyses were performed by staining the cells with Live/dead near IR dye (Invitrogen, Karlsruhe, Germany), CD8-FITC antibody clone SK1 (BD, Heidelberg, Germany) and fluorescent pMHC multimers. For analysis, a BD LSRII SORP cytometer equipped with appropriate lasers and filters was used. Peptide specific cells were calculated as percentage of total CD8+ cells. Evaluation of multimeric analysis was done using the FlowJo software (Tree Star, Oreg., USA). In vitro priming of specific multimer+CD8+ lymphocytes was detected by comparing to negative control stimulations.

HLA-A*02:01 = HLA-A*02:01 (Homo sapiens, UniProt P04439, D140Y/D185E/D98H/E176V/E277Q/G131W/G231S/I119V/I121R/I166T/I218V/L300P/L318F/N151K/N90K/P208A/P217A/Q86G/Q94H/R138H/R169H/T345S); test: MHC binding assay (UV-ligand exchange, beta2m ELISA); details: binding of HLA-class I restricted peptides to HLA-A*02:01, β2m ELISA
Procedure, shortened: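 Binding capacity is expressed as the yield of UV-mediated ligand exchange, reflecting how well each peptide stabilizes peptide-receptive MHC. Stabilized complexes are read out by anti-β2m HRP ELISA (450 nm) after streptavidin capture, with refolded MLA-001 monomer standards for quantitation.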

Substance | Wells positive [%] (CD8+ T cells) | Peptide Exchange (MHC class I binding score, peptide exchange yield) (HLA-A*02:01)
197 (YLQEVPILTL; listed as Homo sapiens) [compound 197] | “+” (<20% = +) | “++++” (≥75% = ++++)
323 (SLDLFNCEV; listed as Homo sapiens) [compound 323] | “+” (<20% = +) | “++++” (≥75% = ++++)
100 (ILNNEVFAI; listed as Homo sapiens) [compound 100] | “++” (20%-49% = ++) | “+++” (≥50 = +++)
320 (TIAPVTVAV; listed as Homo sapiens) [compound 320] | “+” (<20% = +) | “++++” (≥75% = ++++)
112 (KTLDVDATYEI; listed as Homo sapiens) [compound 112] | “+” (<20% = +) | “+++” (≥50 = +++)
1 (AIPPSFASIFL; listed as Homo sapiens) [compound 1] | “+++” (50%-69% = +++) | “+++” (≥50 = +++)
56 (FVFEAPYTL; listed as Homo sapiens) [compound 56] | “++” (20%-49% = ++) | “+++” (≥50 = +++)
220 (ALPEILFAKV; listed as Homo sapiens) [compound 220] | “++” (20%-49% = ++) | “+++” (≥50 = +++)
101 (ILVVIEPLL; listed as Homo sapiens) [compound 101] | “+” (<20% = +) | “++++” (≥75% = ++++)
307 (LLLTKPTEA; listed as Homo sapiens) [compound 307] | “+” (<20% = +) | “+++” (≥50 = +++)
240 (ILARDILEI; listed as Homo sapiens) [compound 240] | “+” (<20% = +) | “+++” (≥50 = +++)
192 (YIQEYLTLL; listed as Homo sapiens) [compound 192] | “+” (<20% = +) | “+++” (≥50 = +++)
26 (AVLLVLPLV; listed as Homo sapiens) [compound 26] | “+” (<20% = +) | “+++” (≥50 = +++)
32 (FIDKFTPPV; listed as Homo sapiens) [compound 32] | “++++” (>=70% = ++++) | “++++” (≥75% = ++++)
380 (YLDRKLLTL; listed as Homo sapiens) [compound 380] | “++++” (>=70% = ++++) | “+++” (≥50 = +++)
114 (LIPEGPPQV; listed as Homo sapiens) [compound 114] | “+” (<20% = +) | “+++” (≥50 = +++)
54 (FLYPFPLALF; listed as Homo sapiens) [compound 54] | “+” (<20% = +) | “+++” (≥50 = +++)
200 (YMFEEVPIVI; listed as Homo sapiens) [compound 200] | “+” (<20% = +) | “++++” (≥75% = ++++)
17 (ALTKTNLQL; listed as Homo sapiens) [compound 17] | “+” (<20% = +) | “+++” (≥50 = +++)
5 (ALIFKIASA; listed as Homo sapiens) [compound 5] | “+++” (50%-69% = +++) | “+++” (≥50 = +++)
2 (ALHRPDVYL; listed as Homo sapiens) [compound 2] | “+” (<20% = +) | “+++” (≥50 = +++)
57 (GLSEISLRL; listed as Homo sapiens) [compound 57] | “+” (<20% = +) | “++++” (≥75% = ++++)
96 (ILIDKTSFV; listed as Homo sapiens) [compound 96] | “+” (<20% = +) | “+++” (≥50 = +++)
